Reference: patent US7666901B2, “Analogs of 17-hydroxywortmannin as PI3K inhibitors” (Wyeth, priority 2004, dated 2010)

Legend:
Human TOR = biological target: T1, Human TOR (Homo sapiens, UniProt P42345); experiment: Human TOR (mTOR) kinase assay, DELFIA format; format: biochemical
T1 construct: FLAG
Summary of the method: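 Purified FLAG-TOR (800 ng/mL) phosphorylates His6-S6K ([…]) with […] ATP in Hepes pH 7.4 buffer containing MnCl2, 2 h at room temperature. Phospho-Thr389 S6K detected by DELFIA using Europium-labelled anti-P(T389)-p70S6K antibody; enzyme inhibition calculated from signal.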

PI3K = test system: T2, PI3K; experiment: Fluorescence polarization assay for PI3K; format: biochemical
T2 construct: PI3K FP IC50
Summary of the method: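 PI3K was preincubated with compound at 1% DMSO final, then reacted with PIP2/ATP substrate for 30-60 min. The reaction was stopped with a detector mix giving 10 nM red probe and 70 nM GST-GRP. Fluorescence polarization (mP, Tamra filters) was read 30-90 min later and IC50 determined.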

[1] = test system: panel of seven colon tumor lines; experiment: Tumor cell growth assay, combination with MEK inhibitor, colon panel; format: cell-based, human
Method: (§1) Human tumor cell are all obtained from ATCC, and are cultured using standard cell culture methods. Cells are plated in 96-well culture plates at 1000 to 3000 cells per well. One day following plating, cells are treated with various doses of PI3K inhibitor Compound 4 or Compound 5 alone or with a low constant dose of MEK inhibitor 2-(2-chloro-4-iodoanilino)-N-(cycloprorylmethoxy-3,4-difluobenzamide) (1 μg/ml) or UO126 (5 μg/ml). UO126 is also known as 1,4-diamino-2,3-dicyano-1,4-bis[2-aminophenylthio]butadiene. In some experiments, cells are treated alone with various doses of the MEK inhibitor (2-(2-chloro-4-iodoanilino)-N-(cycloprorylmethoxy-3,4-difluobenzamide)), or HER2/neu inhibitor HKI-272, or mTOR inhibitor CCI-779, or with a low constant dose of Compound 4 (0.1 μg/ml). […] Three days after drug treatment, viable cell densities are determined by metabolic conversion (by viable cells) of the dye MTS, an established cell proliferation assay. […] The MTS assay results are read in a 96-well plate reader by measuring absorbance at 490 nm. The effect of each treatment is calculated as percent of control growth relative to the vehicle DMSO-treated cells grown in the same culture plate. […]

[2] = test system: MDA231 breast tumor cells; experiment: Tumor cell growth assay, combination with MEK inhibitor, MDA231; format: cell-based, human
Method: as §1

In the case of `COC[C@H]1OC(=O)/C(=C/N(CCO)C(C)(C)C)C2=C(O)C(=O)C3=C([C@H](OC(C)=O)C[C@@]4(C)C3CC[C@@H]4O)[C@]21C` (stereo partly drawn) [Compound 4, (1E,4S,4aR,5R,6aS,7S)-1-{[tert-butyl(2-hydroxyethyl)amino]methylene}-7,11-dihydroxy-4-(methoxymethyl)-4a,6a-dimethyl-2,10-dioxo-1,2,4,4a,5,6,6a,7,8,9,9a,10-dodecahydroindeno[4,5-h]isochromen-5-yl acetate], the “TOR IC50” value (Human TOR; Table 1) is reported as 16 µg/mL, the “TOR IC50” value (Human TOR; Table 2) is reported as >10 µg/mL and the “PI3K FP IC50” value (PI3K; Table 1) is reported as 0.596 µg/mL. For the same compound, the IC50 (PI3K; Table 2) was 1000 nM, the “growth inhibition in combination with MEK inhibitor 2-(2-chloro-4-iodoanilino)-N-(cycloprorylmethoxy-3,4-difluobenzamide)” value [1] was “synergistic growth inhibition” and the “growth inhibition in combination with MEK inhibitor 2-(2-chloro-4-iodoanilino)-N-(cycloprorylmethoxy-3,4-difluobenzamide)” value [2] was “synergistic growth inhibition”.
